What was measured:
[1] = Experiment 1: fluorine concentration in treated synthetic hydroxyapatite powder (microdiffusion analysis); conditions: pH 4.5, 37°C 5 minutes, then calcifying solution 60 minutes
Procedure: (§1) Sodium fluoride and the heterocyclic compounds or the fatty acid ester (for comparison) listed in Tables 1 to 3 were added to an distilled water in the amounts shown in Tables 1 to 3, and the pH of the solution was adjusted to 4.5 with dilute hydrochloride or sodium hydroxide to form several preparations. Synthetic hydroxyapatite powder was incubated in each of the preparations at 37°C for 5 minutes and in a calcifying solution at 37°C for 60 minutes, and then filtrated and dried. The fluorine concentration in the treated synthetic hydroxyapatite powder was determined by microdiffusion analysis, and the amount of dissolved calcium after incubating the treated powder in an acetate buffer at 37°C for 60 minutes was measured. The inhibition (%) of decalcification was then calculated by the following equation, to evaluate the acid resistance thereof. [drawing 3]

[2] = Experiment 2: decalcification in acidic gelatin gel observed by microradiography; design: species or system bovine; conditions: 4W in acidic gelatin gel
Procedure: (§2) A fluoride compound, and pyridoxine hydrochloride, 3-pyridylcarbinol or thiamine hydrochloride were added to distilled water, in amounts shown in table 4 to produce preparations. A bovine tooth (which had been ground to remove 200 µm of the surface and expose the enamel surface) was incubated in each preparation at 37°C for 5 minutes and in a calcifying solution at 37°C for 60 minutes, and then washed with tap water and dried. The fluorine concentration in the enamel of the fluoride-treated bovine tooth was determined by enamel biopsy. […] Considerable decalcification. x ... No inhibition of decalcification.

[3] = Experiment 1: inhibition of decalcification (dissolved calcium from treated powder in acetate buffer); conditions: acetate buffer 37°C 60 minutes
Procedure: as §1

[4] = Experiment 2: fluorine concentration in enamel of treated tooth by enamel biopsy; design: species or system bovine
Procedure: as §2

**Q.** With `[F-].[Na+]` [Sodium fluoride] as the compound, how does the “Fluorine concentration (ppm)” value ([1]; Sodium fluoride 0.2 %, pyridoxine hydrochloride 0 %) read?
**A.** Its value is 4910 ppm.

**Q.** What about the “Fluorine concentration (ppm)” value ([1]; Table 2, preparations in distilled water) of the same compound?
**A.** Its value is 4910 ppm.

**Q.** And the “Fluorine concentration (ppm)” value ([1]; Table 3, preparations in distilled water)?
**A.** The value was 4796 ppm.

**Q.** And the Inhibition of decalcification [2]?
**A.** Its Inhibition of decalcification is “○”.

**Q.** What about the “Inhibition of decalcification (%)” value ([3]; Sodium fluoride 0.2 %, pyridoxine hydrochloride 0 %, pH 4.5) of the same compound?
**A.** The value was 40.9%.

**Q.** And the “Inhibition of decalcification (%)” value ([3]; Table 2, preparations pH 4.5)?
**A.** The value was 40.9%.

**Q.** And the “Inhibition of decalcification (%)” value ([3]; Table 3, preparations pH 4.5)?
**A.** Its value is 40.9%.

**Q.** What about the “F conc. in enamel” value ([4]; 1st Etch) of the same compound?
**A.** Its value is 498 ppm.

**Q.** And the “F conc. in enamel” value ([4]; 2nd etch)?
**A.** The value was 309 ppm.

**Q.** What about the “F conc. in enamel” value ([4]; 3rd etch) of the same compound?
**A.** Its value is 222 ppm.

**Q.** And the “F conc. in enamel” value ([4]; 4th etch)?
**A.** The value was 178 ppm.

**Q.** What about the “F conc. in enamel” value ([4]; 5th etch) of the same compound?
**A.** The value was 139 ppm.

From patent EP0318138A1, “Use of inorganic fluorides and nitrogen heterocyclics for enhancement of fluoride uptake in teeth” (SHISEIDO COMPANY LIMITED, priority 1987, dated 1989)
